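Test compounds were applied to cells in 96-well plates for 48 hours at 5 doses. The concentration for 50% growth inhibition is given as GI50. TGI is the concentration that stops growth completely.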
Assays:
Assay in all cases: growth of human tumour cells (NCI), 48 h
MDA-MB-231 breast = test system: MDA-MB-231 breast
ACHN renal = test system: ACHN renal
M14 melanoma = test system: M14 melanoma
U251 CNS = test system: U251 CNS
MOLT-4 leukemia = test system: MOLT-4 leukemia
SNB-75 CNS = test system: SNB-75 CNS
HOP-92 NSCLC = test system: HOP-92 NSCLC
COLO 205 colon = test system: COLO 205 colon
NCI-H522 lung = test system: NCI-H522 lung
HS 578T breast = test system: HS 578T breast
SK-OV-3 ovarian = test system: SK-OV-3 ovarian
CAKI-1 renal = test system: CAKI-1 renal
PC-3 prostate = test system: PC-3 prostate
IGROV1 ovarian = test system: IGROV1 ovarian
LOX IMVI melanoma = test system: LOX IMVI melanoma
UACC-257 melanoma = test system: UACC-257 melanoma
EKVX NSCLC = test system: EKVX NSCLC
A498 renal = test system: A498 renal
NCI/ADR-RES ovarian = test system: NCI/ADR-RES ovarian
UACC-62 melanoma = test system: UACC-62 melanoma
SK-MEL-2 melanoma = test system: SK-MEL-2 melanoma
A549 NSCLC = test system: A549 NSCLC
MDA-MB-435 = test system: MDA-MB-435
OVCAR-5 ovarian = test system: OVCAR-5 ovarian
SF-539 CNS = test system: SF-539 CNS
CCRF-CEM leukemia = test system: CCRF-CEM leukemia
SK-MEL-5 melanoma = test system: SK-MEL-5 melanoma
OVCAR-8 ovarian = test system: OVCAR-8 ovarian
SW-620 colon = test system: SW-620 colon
SF-268 CNS = test system: SF-268 CNS
K-562 leukemia = test system: K-562 leukemia
SR leukemia = test system: SR leukemia
NCI-H23 lung = test system: NCI-H23 lung
NCI-H226 lung = test system: NCI-H226 lung
NCI-H460 lung = test system: NCI-H460 lung
TK-10 renal = test system: TK-10 renal
HCT-116 colon = test system: HCT-116 colon
OVCAR-4 ovarian = test system: OVCAR-4 ovarian
SNB-19 CNS = test system: SNB-19 CNS
HCT-15 colon = test system: HCT-15 colon
DU-145 prostate = test system: DU-145 prostate
SN12C renal = test system: SN12C renal
MCF7 breast = test system: MCF7 breast
RPMI-8226 leukemia = test system: RPMI-8226 leukemia
HL-60(TB) leukemia = test system: HL-60(TB) leukemia
KM12 colon = test system: KM12 colon
HCC-2998 colon = test system: HCC-2998 colon
786-0 renal = test system: 786-0 renal
HT29 colon = test system: HT29 colon
OVCAR-3 ovarian = test system: OVCAR-3 ovarian
BT-549 breast = test system: BT-549 breast
HOP-62 NSCLC = test system: HOP-62 NSCLC
SK-MEL-28 melanoma = test system: SK-MEL-28 melanoma
SF-295 CNS = test system: SF-295 CNS
UO-31 renal = test system: UO-31 renal
RXF 393 renal = test system: RXF 393 renal

CCCn1cnc2c(c1=N)C(c1ccc(F)cc1)c1sc3c(CC)cccc3c1O2 (stereo unspecified)
GI50 (MDA-MB-231 breast): 0.325 µM
TGI (MDA-MB-231 breast): > 62.3 µM
GI50 (ACHN renal): 0.133 µM
TGI (ACHN renal): 49.9 µM
GI50 (M14 melanoma): 0.182 µM
TGI (M14 melanoma): 33.6 µM
GI50 (U251 CNS): 0.273 µM
TGI (U251 CNS): > 40.6 µM
GI50 (MOLT-4 leukemia): 0.434 µM
TGI (MOLT-4 leukemia): > 100 µM
GI50 (SNB-75 CNS): 0.0353 µM
TGI (SNB-75 CNS): 36.5 µM
GI50 (HOP-92 NSCLC): 0.0538 µM
TGI (HOP-92 NSCLC): 4.19 µM
GI50 (COLO 205 colon): 0.354 µM
TGI (COLO 205 colon): 1.95 µM
GI50 (NCI-H522 lung): 0.0359 µM
TGI (NCI-H522 lung): 8.08 µM
GI50 (HS 578T breast): 0.0864 µM
TGI (HS 578T breast): > 88 µM
GI50 (SK-OV-3 ovarian): 1.21 µM
TGI (SK-OV-3 ovarian): 35 µM
GI50 (CAKI-1 renal): 0.0621 µM
TGI (CAKI-1 renal): 18.3 µM
GI50 (PC-3 prostate): 0.0798 µM
TGI (PC-3 prostate): > 51.4 µM
GI50 (IGROV1 ovarian): 0.176 µM
TGI (IGROV1 ovarian): 24 µM
GI50 (LOX IMVI melanoma): 0.0404 µM
TGI (LOX IMVI melanoma): 31.3 µM
GI50 (UACC-257 melanoma): 27.5 µM
TGI (UACC-257 melanoma): > 100 µM
GI50 (EKVX NSCLC): 0.481 µM
TGI (EKVX NSCLC): > 100 µM
GI50 (A498 renal): 0.0799 µM
TGI (A498 renal): 1.04 µM
GI50 (NCI/ADR-RES ovarian): 0.0501 µM
TGI (NCI/ADR-RES ovarian): 26.4 µM
GI50 (UACC-62 melanoma): 0.038 µM
TGI (UACC-62 melanoma): 29 µM
GI50 (SK-MEL-2 melanoma): 7.57 µM
TGI (SK-MEL-2 melanoma): > 100 µM
GI50 (A549 NSCLC): 0.236 µM
TGI (A549 NSCLC): > 90.7 µM
GI50 (MDA-MB-435): 0.0239 µM
TGI (MDA-MB-435): 0.06 µM
GI50 (OVCAR-5 ovarian): 0.493 µM
TGI (OVCAR-5 ovarian): > 100 µM
GI50 (SF-539 CNS): 0.0949 µM
TGI (SF-539 CNS): 0.815 µM
GI50 (CCRF-CEM leukemia): 0.314 µM
TGI (CCRF-CEM leukemia): > 67.9 µM
GI50 (SK-MEL-5 melanoma): 0.0998 µM
TGI (SK-MEL-5 melanoma): 1.2 µM
GI50 (OVCAR-8 ovarian): 0.434 µM
TGI (OVCAR-8 ovarian): > 100 µM
GI50 (SW-620 colon): 0.237 µM
TGI (SW-620 colon): > 100 µM
GI50 (SF-268 CNS): 0.241 µM
TGI (SF-268 CNS): > 100 µM
GI50 (K-562 leukemia): 0.0583 µM
TGI (K-562 leukemia): > 100 µM
GI50 (SR leukemia): 0.117 µM
TGI (SR leukemia): > 42.3 µM
GI50 (NCI-H23 lung): 0.138 µM
TGI (NCI-H23 lung): 19.3 µM
GI50 (NCI-H226 lung): 0.395 µM
GI50 (NCI-H460 lung): 0.211 µM
TGI (NCI-H460 lung): 13.9 µM
GI50 (TK-10 renal): 19.4 µM
TGI (TK-10 renal): > 100 µM
GI50 (HCT-116 colon): 0.263 µM
TGI (HCT-116 colon): 4.77 µM
GI50 (OVCAR-4 ovarian): 0.336 µM
TGI (OVCAR-4 ovarian): > 100 µM
GI50 (SNB-19 CNS): 0.273 µM
TGI (SNB-19 CNS): 49.4 µM
GI50 (HCT-15 colon): 0.179 µM
TGI (HCT-15 colon): > 100 µM
GI50 (DU-145 prostate): 0.309 µM
TGI (DU-145 prostate): 15.3 µM
GI50 (SN12C renal): 0.398 µM
TGI (SN12C renal): 22.5 µM
GI50 (MCF7 breast): 0.0247 µM
TGI (MCF7 breast): > 100 µM
GI50 (RPMI-8226 leukemia): 0.2 µM
TGI (RPMI-8226 leukemia): > 22.9 µM
GI50 (HL-60(TB) leukemia): 0.243 µM
TGI (HL-60(TB) leukemia): 1.08 µM
GI50 (KM12 colon): 0.275 µM
TGI (KM12 colon): > 42.3 µM
GI50 (HCC-2998 colon): 0.337 µM
TGI (HCC-2998 colon): 38.7 µM
GI50 (786-0 renal): 0.443 µM
TGI (786-0 renal): > 89.2 µM
GI50 (HT29 colon): 0.302 µM
TGI (HT29 colon): 27.3 µM
GI50 (OVCAR-3 ovarian): 0.068 µM
TGI (OVCAR-3 ovarian): 7.68 µM
GI50 (BT-549 breast): 1.99 µM
TGI (BT-549 breast): 19.1 µM
GI50 (HOP-62 NSCLC): 0.423 µM
TGI (HOP-62 NSCLC): 29.7 µM
GI50 (SK-MEL-28 melanoma): 8.9 µM
TGI (SK-MEL-28 melanoma): > 100 µM
GI50 (SF-295 CNS): 0.0478 µM
TGI (SF-295 CNS): > 47.9 µM
GI50 (UO-31 renal): 0.0813 µM
TGI (UO-31 renal): > 100 µM
GI50 (RXF 393 renal): 0.0294 µM
TGI (RXF 393 renal): 0.13 µM
